A short description of series [1]: pKa analysis by capillary electrophoresis (pKa PRO Analyzer, co-solvent method). In kind it is physicochemical. As to conditions: methanol/aqueous co-solvent buffers, co-solvent method (60% to 30% methanol buffers). The gist of the method: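 Capillary electrophoresis by the co-solvent method, with 100 μM compound and 1% DMSO in 2 mM HCl or NaOH at 60% methanol.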

In series [2] the target is KHK-C expressed in NRK-52E cells (Homo sapiens (Human), UniProt P50053). The series can be described thus: KHK-C Cell-based Assay (EC50), NRK CTG, fructose-mediated ATP-depletion.
The next series concerns the target human KHK-C (Homo sapiens (Human), UniProt P50053). The series can be described thus: KHK Biochemical Assay (IC50), ADP-Glo, KHK-C. As to conditions: average of at least two separate assays. In short, it runs like this: (§1)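 His-tagged enzyme expressed in BL21 (DE3), Ni-NTA purified. Compounds, serially diluted 1:3 in DMSO, pre-incubated 30 min with enzyme in 50 mM Hepes pH 7.4, 140 mM KCl, 5 mM MgCl2, 0.01% Triton-X, then ATP and fructose added; 4 h at room temperature. ADP formation read by ADP-Glo luminescence.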

A further series has as its target human KHK-A (Homo sapiens (Human), UniProt P50053). The series can be described thus: KHK Biochemical Assay (IC50), ADP-Glo, KHK-A. The following applies: average of at least two separate assays. In short, it runs like this: as §1
A general note: ADP-Glo first removes unused ATP, then detects ADP through luciferase.

Another series relates to HepG2 cells. The series can be described thus: F1P Cell-Based Assay (EC50), 13C6-fructose-1-phosphate in HepG2 cells (cell culture medium or 50% human plasma). The following applies: Homo sapiens.
The next series deals with human OATP1B1 (Homo sapiens (Human), UniProt Q9Y6L6). The series can be described thus: In Vitro Inhibition Assessment with Human OATP1B1 Transporter. In kind it is in vitro ADME. The following applies: HEK293-OATP1B1 cells, probe substrate pravastatin. In short, it runs like this:
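HEK293-OATP1B1 and mock cells were preincubated 15 min with compound in HBSS. They were then coincubated 5 min with compound plus pravastatin (0.4% DMSO final), and intracellular substrate was quantified by LC-MS/MS. Mock-corrected uptake relative to solvent gave percentage activity, from which IC50 was fitted.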

[3] abbreviates: pH range 1.7-11.2, read-out: 1st pKa.
The mark [4] stands for this setting: HepG2, HepG2 cells, 50% human plasma, read-out: F1P 50% HP EC50.
[5] abbreviates: HepG2, read-out: F1P 10% FBS EC50, HepG2 cells, cell culture medium (10% FBS).
[6] abbreviates: pH range 1.7-11.2, read-out: 2nd pKa.

This is an account of results in US12410160B2 (Gilead Sciences, Inc., priority 2021, dated 2025).

SMILES strings stand for the structures. Read-outs that look alike come from different tables or passages of the source. Where only a bound is given, the exact number is not on record here.

human KHK-A, sequence (P50053 other isoform, or with tags, fused parts or gaps): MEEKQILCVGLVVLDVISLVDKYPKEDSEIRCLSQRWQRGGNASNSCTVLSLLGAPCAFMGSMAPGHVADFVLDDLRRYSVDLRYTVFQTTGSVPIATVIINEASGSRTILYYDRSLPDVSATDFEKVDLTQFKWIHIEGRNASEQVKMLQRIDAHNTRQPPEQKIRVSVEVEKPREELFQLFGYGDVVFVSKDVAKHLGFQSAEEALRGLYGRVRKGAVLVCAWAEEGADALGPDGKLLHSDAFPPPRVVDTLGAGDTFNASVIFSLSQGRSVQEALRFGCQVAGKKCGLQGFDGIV
KHK-C expressed in NRK-52E cells, sequence (P50053 whole entry): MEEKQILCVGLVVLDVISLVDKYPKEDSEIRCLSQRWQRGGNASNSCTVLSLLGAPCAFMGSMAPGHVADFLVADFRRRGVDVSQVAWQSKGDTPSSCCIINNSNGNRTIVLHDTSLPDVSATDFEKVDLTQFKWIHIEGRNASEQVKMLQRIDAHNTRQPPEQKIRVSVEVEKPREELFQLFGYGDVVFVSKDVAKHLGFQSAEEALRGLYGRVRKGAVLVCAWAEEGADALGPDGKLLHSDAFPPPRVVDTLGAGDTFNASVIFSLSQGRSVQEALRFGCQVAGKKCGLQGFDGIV
human KHK-C, sequence (P50053 whole entry): as above
human OATP1B1, sequence (Q9Y6L6 whole entry): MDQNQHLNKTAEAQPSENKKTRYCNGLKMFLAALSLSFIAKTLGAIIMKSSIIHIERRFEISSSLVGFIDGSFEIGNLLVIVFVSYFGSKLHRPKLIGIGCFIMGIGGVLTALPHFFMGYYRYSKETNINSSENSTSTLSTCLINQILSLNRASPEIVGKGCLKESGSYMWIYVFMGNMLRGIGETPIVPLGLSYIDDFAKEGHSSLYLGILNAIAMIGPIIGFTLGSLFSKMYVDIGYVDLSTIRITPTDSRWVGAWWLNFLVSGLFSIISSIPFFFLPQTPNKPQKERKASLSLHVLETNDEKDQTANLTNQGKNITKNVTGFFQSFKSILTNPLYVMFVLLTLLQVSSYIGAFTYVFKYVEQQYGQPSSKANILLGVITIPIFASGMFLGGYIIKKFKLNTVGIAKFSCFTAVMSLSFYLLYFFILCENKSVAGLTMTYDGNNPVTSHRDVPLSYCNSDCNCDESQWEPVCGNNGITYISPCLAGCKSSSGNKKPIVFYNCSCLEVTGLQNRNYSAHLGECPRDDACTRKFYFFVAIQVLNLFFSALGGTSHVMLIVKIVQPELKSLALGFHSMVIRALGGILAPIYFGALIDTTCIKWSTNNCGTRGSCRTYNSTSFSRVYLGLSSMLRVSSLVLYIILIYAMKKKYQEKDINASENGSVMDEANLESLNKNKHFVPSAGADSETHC

Turning to `C[C@H]1[C@H](O)CN1c1nc(-c2cccc([S@@](C)(=N)=O)c2)c2c(n1)C(F)(F)CC2` (single isomer, unassigned) [Example 492], the pKa in series [1] (setting [3]) turned out to be 2.1. Also, the EC50 amounted to 41.8 nM in series [2], 22.2 nM in the series with HepG2 cells (setting [4]) and 20.7 nM in the series on HepG2 cells (setting [5]). The IC50 against human KHK-C came to 9 nM; at human KHK-A, 12.2 nM; on human OATP1B1, 31700 nM.
Regarding `COc1ccc(-c2nc(N3C[C@@H](O)[C@@H]3C)nc3c2CCC3(F)F)cc1[S@@](C)(=N)=O` (single isomer, unassigned) [Example 495], the pKa in series [1] (setting [3]) stood at 2.5. For the same molecule, the concentration giving a half-maximal response (EC50) is 16 nM in series [2], 2.3 nM with HepG2 cells (setting [4]) and 1.1 nM in the series with HepG2 cells (setting [5]). Also, the IC50 was 1.5 nM against human KHK-C, 0.7 nM on human KHK-A and greater than 40000 nM against human OATP1B1.
For `NC1(c2ccc(-c3nc(N4CC[C@@H]4C(F)F)nc4c3CCC4(F)F)cc2)COC1` (single isomer, unassigned) [Example 687], in series [1] (setting [3]), the pKa was 6. Moreover, the 50% effective concentration (EC50) in series [2] amounted to 6.2 nM; with HepG2 cells (HepG2, read-out: F1P 10% FBS EC50), 7.6 nM; in the series with HepG2 cells (HepG2, read-out: F1P 50% HP EC50) it was 14.6 nM. Moreover, the results for the IC50 against human KHK-C, against human KHK-A and against human OATP1B1 were 1.2 nM, 2.8 nM and 6550 nM, respectively.
On to `C[C@H]1CCN1c1nc2c(c(-c3cccc(C(N)=O)c3)n1)CCC2` [Example 8, (S)-3-(2-(2-methylazetidin-1-yl)-6,7-dihydro-5H-cyclopenta[d]pyrimidin-4-yl)benzamide], for which the pKa in series [1] (setting [3]) was found to be 4.38. In series [2], this molecule gave an EC50 of 128 nM. In addition, the half-inhibitory concentration (IC50) against human KHK-C (ADP-Glo) was 48.1 nM; on human KHK-A (ADP-Glo), 38.8 nM; on human OATP1B1 it was 1320 nM.
`C[C@H]1CCN1c1nc2c(c(-c3ccc(CN)cc3)n1)CCC2` [Example 188, [4-[2-[(2S)-2-methylazetidin-1-yl]-6,7-dihydro-5H-cyclopenta[d]pyrimidin-4-yl]phenyl]methanamine]: the figures for the pKa in series [1] (setting [3]) and in series [1] (setting [6]) were 4.27 and 9.27, respectively. Further, the response in series [2] was half-maximal at 177 nM (EC50). For the same molecule, the IC50 against human KHK-C (ADP-Glo) was 2.1 nM; at human KHK-A (ADP-Glo), 4.2 nM; on human OATP1B1, 10200 nM.
Consider `C[C@H]1CCN1c1nc2c(c(-c3ccc4c(=O)[nH]ccc4c3)n1)CCC2` [Example 364, 6-[2-[(2S)-2-methylazetidin-1-yl]-6,7-dihydro-5H-cyclopenta[d]pyrimidin-4-yl]-2H-isoquinolin-1-one], for which the pKa in series [1] (setting [3]) was determined as 4.32. For the same molecule, it took 13.1 nM to reach a half-maximal effect in series [2] (EC50). Further, the results for the IC50 at human KHK-C (ADP-Glo), against human KHK-A (ADP-Glo) and against human OATP1B1 were 3.3 nM, 10 nM and 38.9 nM, respectively.
As to `C[C@H]1CCN1c1nc2c(c(-c3ccc4c(N)nccc4c3)n1)CCC2` [Example 378, 6-[2-[(2S)-2-methylazetidin-1-yl]-6,7-dihydro-5H-cyclopenta[d]pyrimidin-4-yl]isoquinolin-1-amine], the pKa is 3.29 in series [1] (setting [3]) and 6.64 in series [1] (setting [6]). The molecule further came in with an EC50 in series [2] of 7.7 nM. For the same molecule, the results for the IC50 on human KHK-C (ADP-Glo), at human KHK-A (ADP-Glo) and against human OATP1B1 were 1 nM, 3.4 nM and 1690 nM, respectively.
On to `C[C@H]1CCN1c1nc2c(c(-c3ccc(CN)s3)n1)CCC2` [Example 459, [5-[2-[(2S)-2-methylazetidin-1-yl]-6,7-dihydro-5H-cyclopenta[d]pyrimidin-4-yl]-2-thienyl]methanamine], for which the values for the pKa in series [1] (setting [3]) and in series [1] (setting [6]) were 4.27 and 8.65, respectively. Moreover, in series [2], the EC50 turned out to be 42.1 nM. Moreover, the IC50 against human KHK-C was 6.6 nM; against human KHK-A it was 11.1 nM; against human OATP1B1, 13200 nM.
Turning to `C[C@H]1[C@H](O)CN1c1nc(-c2ccc3c(c2)OC[C@@H]3NS(C)(=O)=O)c2c(n1)C(F)(F)CC2` [Example 466, N—((R)-6-(7,7-difluoro-2-((2S,3R)-3-hydroxy-2-methylazetidin-1-yl)-6,7-dihydro-5H-cyclopenta[d]pyrimidin-4-yl)-2,3-dihydrobenzofuran-3-yl)methanesulfonamide], the pKa in series [1] (setting [3]) turned out to be 10.3. The EC50 was determined as 11.4 nM in series [2], 20.5 nM in the series on HepG2 cells (setting [4]) and 7.3 nM in the series with HepG2 cells (setting [5]). For the same molecule, the IC50 against human KHK-C amounted to 0.5 nM; against human KHK-A, 4 nM; against human OATP1B1, 3010 nM.
For the molecule `NC1(c2ccc(-c3nc(N4CC[C@@H]4CF)nc4c3CCC4(F)F)cc2)COC1` [Example 471, (R)-3-(4-(7,7-difluoro-2-(2-(fluoromethyl)azetidin-1-yl)-6,7-dihydro-5H-cyclopenta[d]pyrimidin-4-yl)phenyl)oxetan-3-amine], the pKa in series [1] (setting [3]) came out at 6.1. Moreover, the EC50 in series [2] was 6.4 nM; in the series on HepG2 cells (setting [4]) it was 13.2 nM; with HepG2 cells (setting [5]) it was 8.4 nM. In addition, the values for the half-inhibitory concentration (IC50) against human KHK-C, on human KHK-A and at human OATP1B1 were 2 nM, 7 nM and 23300 nM, respectively.
In the case of `O=S1(=O)CCNCc2ccc(-c3nc(N4CC[C@@H]4CF)nc4c3CCC4(F)F)cc21` [Example 490, (R)-8-(7,7-difluoro-2-(2-(fluoromethyl)azetidin-1-yl)-6,7-dihydro-5H-cyclopenta[d]pyrimidin-4-yl)-2,3,4,5-tetrahydrobenzo[f][1,4]thiazepine 1,1-dioxide], the pKa in series [1] (setting [3]) amounted to 5.5. Besides, the IC50 against human KHK-C was 1.2 nM; against human KHK-A it was 4.6 nM; at human OATP1B1, 939 nM. Also, the values for the EC50 with HepG2 cells (setting [4]) and with HepG2 cells (setting [5]) were 19.3 nM and 9.3 nM, respectively.
Take `C[C@H]1[C@H](O)CN1c1nc(-c2ccc(C3(N)CS(=O)(=O)C3)cc2)c2c(n1)C(F)(F)CC2` [Example 491]: the pKa in series [1] (setting [3]) worked out at 4.5. Moreover, the EC50 in series [2] was determined as 35.8 nM; with HepG2 cells (setting [4]), 26.2 nM; in the series with HepG2 cells (setting [5]), 31.9 nM. The values for the IC50 against human KHK-C, against human KHK-A and on human OATP1B1 were 2 nM, 24.2 nM and 36000 nM, respectively.
Regarding `C[C@H]1[C@H](O)CN1c1nc(-c2ccc(C3(N)CC(F)(F)C3)cc2)c2c(n1)C(F)(F)CC2` [Example 646, (2S,3R)-1-[4-[4-(1-amino-3,3-difluoro-cyclobutyl)phenyl]-7,7-difluoro-5,6-dihydrocyclopenta[d]pyrimidin-2-yl]-2-methyl-azetidin-3-ol], the pKa in series [1] (setting [3]) turned out to be 6.6. The EC50 in series [2] was 7.4 nM; in the series with HepG2 cells (setting [4]) it was 22.4 nM; in the series on HepG2 cells (setting [5]), 14.3 nM. The 50% inhibitory concentration (IC50) against human KHK-C is 2.7 nM; on human OATP1B1, 5010 nM.
Regarding `NC1(c2ccc(-c3nc(N4CC[C@@H]4C(F)(F)F)nc4c3CCC4(F)F)cc2)COC1` [Example 696, 3-[4-[7,7-difluoro-2-[(2R)-2-(trifluoromethyl)azetidin-1-yl]-5,6-dihydrocyclopenta[d]pyrimidin-4-yl]phenyl]oxetan-3-amine], in series [1] (setting [3]), the pKa was 6.3. Further, the half-maximal effective concentration (EC50) in series [2] was found to be 5.7 nM; with HepG2 cells (setting [4]) it was 6.8 nM; in the series with HepG2 cells (setting [5]) it was 1.7 nM. Moreover, the concentration for half-maximal inhibition (IC50) on human KHK-C is 0.5 nM; against human KHK-A, 1 nM; at human OATP1B1, 5410 nM.
In the case of `N#C[C@H]1CCN1c1nc(-c2ccc(C3(N)COC3)cc2)c2c(n1)C(F)(F)CC2` [Example 711, (R)-1-(4-(4-(3-aminooxetan-3-yl)phenyl)-7,7-difluoro-6,7-dihydro-5H-cyclopenta[d]pyrimidin-2-yl)azetidine-2-carbonitrile], the pKa in series [1] (setting [3]) was 6.3. Moreover, the EC50 in series [2] worked out at 35.2 nM; in the series on HepG2 cells (setting [4]), 33.7 nM; with HepG2 cells (setting [5]), 28.2 nM. For the same molecule, the IC50 against human KHK-C turned out to be 6.1 nM; against human OATP1B1, 12800 nM.
Regarding `COc1ccc(-c2nc(N3C[C@@H](O)[C@@H]3C)nc3c2CCC3(F)F)cc1S(N)(=O)=O` [Example 763, 5-(7,7-difluoro-2-((2S,3R)-3-hydroxy-2-methylazetidin-1-yl)-6,7-dihydro-5H-cyclopenta[d]pyrimidin-4-yl)-2-methoxybenzenesulfonamide], the pKa in series [1] (setting [3]) amounted to 1.7. For the same molecule, the IC50 against human KHK-C was 3 nM; against human KHK-A it was 3.6 nM; at human OATP1B1, 2570 nM. Also, the EC50 came out at 8 nM with HepG2 cells (setting [4]) and 6.9 nM in the series on HepG2 cells (setting [5]).

The pKa is the pH at which an ionisable group is half protonated. The term EC50 denotes the midpoint of the concentration-response curve. A word on the IC50: it is the concentration at which inhibition is half-maximal. A high value points to weaker potency.
